The values that follow come from PubChem BioAssay (NCI).

Molecules are shown by their SMILES.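 48-hour exposure; five concentrations; linearly interpolated endpoints. TGI denotes the concentration required for complete inhibition of growth.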

Holding throughout (assay): NCI tumour cell line growth inhibition, 48 h
Assay [1] has as its system SW-620 colon.
The subject of assay [2] is HCT-116 colon.
Assay [3] relates to K-562 leukemia.
The test system of assay [4] is M19-MEL melanoma.
The test system of assay [5] is SF-268 CNS.
Assay [6] has as its system TK-10 renal.
For assay [7], the system named is LOX IMVI melanoma.
Assay [8] deals with U251 CNS.
Assay [9] relates to CAKI-1 renal.
Assay [10] deals with SK-MEL-5 melanoma.
Assay [11] has as its system SF-295 CNS.
For assay [12], the system named is SK-MEL-28 melanoma.
In assay [13] the test system is HT29 colon.
Assay [14] concerns HL-60(TB) leukemia.
Assay [15] relates to LXFL 529 NSCLC.
The test system of assay [16] is SK-MEL-2 melanoma.
In assay [17] the test system is DLD-1 colon.
Assay [18] relates to HS 578T breast.
Assay [19] deals with MCF7 breast.

Regarding `O=C(CCN(CCO)CCO)Nc1ccc2c(c1)C(=O)c1ccc(NC(=O)CCN(CCO)CCO)cc1C2=O`, the TGI was 33.4 µM in assay [1]; 33.2 µM in assay [2]; 74.4 µM in [3]; 26.6 µM in assay [4]; 60.6 µM in [5]; above 100 µM in [6]. In addition, the TGI in assay [7] was 56.5 µM; in assay [8] it was above 100 µM; in assay [9], 32.2 µM; in assay [10] it was 40.7 µM; in [11] it was above 100 µM; in [12] it was 62.6 µM. For the same molecule, the TGI in assay [13] is above 100 µM; in [14] it was 45.7 µM; in assay [15], 16.2 µM; in assay [16] it was 16.8 µM.
For the molecule `CCOc1ccc(NCC(=O)N2CC(=O)Nc3ccccc32)cc1`, the TGI in assay [1], in assay [2], in [3], in assay [4], in assay [5] and in [6] was above 100 µM in each case. In addition, the TGI in [7], in [8], in [9], in assay [10], in assay [11] and in [12] was above 100 µM each time. For the same molecule, the TGI in [13], in assay [14], in assay [17], in [15] and in assay [16] was above 100 µM throughout.
As to `CCCCCCCCCCCCCCCC(=O)NC1CCc2cc(O)c(O)c(O)c2-c2ccc(SC)c(=O)cc21` (centres undefined), the TGI in [1] is 19 µM; in assay [2] it was 17.2 µM; in [3] it was above 40.7 µM; in assay [5], 23 µM; in assay [6], 30.2 µM; in [7], 24.8 µM. Moreover, the TGI was found to be 12.6 µM in [8]; 27.2 µM in assay [9]; 16 µM in assay [10]; 13.7 µM in assay [11]; 20.9 µM in assay [12]; 27.8 µM in assay [13]. The results for the TGI in [14], in [17] and in [15] were above 36.7 µM, 22.4 µM and 8.04 µM, respectively.
For `CC(SC1=CC(=O)c2c(Cl)ccc(O)c2C1=O)C(=O)O` (centres undefined), the TGI in assay [1] was 36.2 µM; in [2], 34.4 µM; in assay [3], above 100 µM; in assay [5] it was 44.2 µM; in assay [6] it was 35.3 µM; in [7], 21.7 µM. Besides, the TGI in [8] amounted to 40.2 µM; in assay [10], 27.5 µM; in assay [11] it was 33.3 µM; in [12] it was 32.9 µM; in assay [14] it was 12.2 µM; in [17] it was 34.7 µM. The TGI is 29.5 µM in [15] and 33.6 µM in assay [16].
In the case of `COc1ccc2c(OC)c3ccoc3nc2c1O`, the TGI in [1], in assay [2], in [3], in assay [4], in assay [5] and in assay [6] was above 100 µM in each case. Also, the TGI in assay [8], in [9], in assay [10], in assay [11], in assay [12] and in assay [13] was above 100 µM in each case. Further, the TGI in [17], in [15] and in [16] was above 100 µM each time.
For `CC(=O)OC1[C@H]2c3cc4c(cc3CN3CCC(C[C@@H]1OC(C)=O)C23)OCO4` (some centres undefined), the TGI in assay [1], in assay [2], in assay [3], in [4], in [5] and in assay [6] was above 75 µM throughout. Further, the TGI in [7], in assay [8], in [11], in [12], in [13] and in [14] was above 75 µM in each case. For the same molecule, the TGI in assay [17] and in [15] was above 75 µM throughout.
Take `Cc1ccc2sc3cc(=O)cc(C)c-3nc2c1`: the TGI in [1] was above 100 µM; in [2] it was above 100 µM; in assay [3], above 100 µM; in assay [4] it was 30.7 µM; in [5], above 100 µM; in assay [6], above 100 µM. The TGI in [8] was above 100 µM; in assay [9] it was 93.1 µM; in assay [10], 38.4 µM; in [11], above 100 µM; in [12], above 100 µM; in assay [13] it was above 100 µM. The TGI was 66 µM in assay [14], above 100 µM in [17], above 100 µM in assay [15] and above 100 µM in assay [16].
For the molecule `CCCCOC(=O)/C(CC(=O)C=C(C)C)=N\NS(=O)(=O)c1ccc(C)cc1`, the TGI in [2], in assay [3], in assay [4], in assay [5], in [6] and in [7] was above 100 µM throughout. The TGI in assay [8], in [9], in assay [10], in assay [11], in assay [12] and in [13] was above 100 µM throughout. Moreover, the TGI in [14], in [17], in assay [15] and in [16] was above 100 µM in each case.
For the molecule `Cc1ccc(S(=O)(=O)N/N=C2\C(=O)C3CC2C(Cl)C3Cl)cc1` (centres undefined), the TGI in assay [1], in [2], in assay [3], in assay [5], in assay [6] and in [7] was above 100 µM each time. The TGI in assay [8], in assay [9], in assay [10], in [11], in assay [12] and in [13] was above 100 µM in each case. In addition, the TGI in assay [14], in assay [17] and in assay [15] was above 100 µM throughout.
`C1=CCN(c2ccccc2)CC1`: the TGI is 47.3 µM in [1]; above 100 µM in assay [2]; above 100 µM in assay [3]; above 100 µM in assay [5]; above 100 µM in assay [6]; above 100 µM in assay [7]. Moreover, the TGI was above 100 µM in assay [8]; above 100 µM in assay [10]; above 100 µM in [11]; 73.9 µM in [12]; 87.3 µM in assay [13]; 90.1 µM in [14]. The results for the TGI in [17], in assay [15] and in [16] were above 100 µM, 43.3 µM and above 100 µM, respectively.
As for `Cc1sc2ncnc(NCCc3ccccc3)c2c1C`, the TGI is above 100 µM in assay [1]; 24.9 µM in assay [2]; 63.6 µM in [18]; 63.1 µM in [3]; 60.1 µM in [5]; 46.5 µM in assay [6]. Further, the TGI in [7] was found to be 22.4 µM; in assay [8] it was 26.7 µM; in assay [9] it was 56.7 µM; in assay [10] it was 12.2 µM; in assay [11], 36.9 µM; in [12], 35 µM. The TGI in assay [13] is 45.3 µM; in assay [14], 29.3 µM; in assay [16] it was 31.2 µM; in [19], 28.6 µM.
With `COC(=O)c1c/c(=N\NC(=O)CC(=O)Nc2ccccc2Cl)c2ccccc2o1`, the TGI in assay [1], in [2], in [3], in [5], in assay [6] and in assay [7] was above 100 µM throughout. Further, the TGI in [8], in assay [9], in assay [10], in assay [11], in assay [12] and in assay [13] was above 100 µM throughout. Besides, the TGI in assay [14], in [17], in [15] and in assay [16] was above 100 µM each time.
In the case of `O=C(CNC(=O)OCc1ccccc1)NCCCCC(NC(=O)OCc1ccccc1)C(=O)O` (centres undefined), the TGI in [1], in assay [2], in assay [18], in assay [3], in assay [5] and in assay [6] was above 100 µM throughout. Also, the TGI in [7], in [8], in assay [9], in assay [10], in [11] and in assay [12] was above 100 µM in each case. Further, the TGI in assay [13], in assay [14], in [16] and in [19] was above 100 µM each time.
For the molecule `N#CCCc1nc2ccc(Br)cc2c(=O)n1-c1ccc(O)c([N+](=O)[O-])c1`, the TGI in [1] was 46.8 µM; in assay [3] it was 61.9 µM; in [4], 42.3 µM; in [5] it was 63.1 µM; in assay [6] it was above 100 µM; in assay [7] it was 35.5 µM. Further, the TGI in assay [9] is 92.6 µM; in [10] it was 36.3 µM; in assay [11], 47.8 µM; in [12], 34.8 µM; in [13], above 100 µM; in [14], 41.9 µM. The TGI in [17] turned out to be 34.7 µM; in [15], 40 µM; in [16] it was 34.7 µM.
`Cc1nc2ccccc2nc1NS(=O)(=O)c1ccc(N)cc1`: the TGI in [1], in [3], in assay [4], in assay [5], in [6] and in assay [7] was above 100 µM in each case. For the same molecule, the TGI in assay [8], in assay [9], in assay [10], in [11], in assay [12] and in assay [13] was above 100 µM in each case. Besides, the TGI in [14], in assay [17], in assay [15] and in assay [16] was above 100 µM in each case.
`CCN(CC)c1ccc(/C=C/C2=NN(c3cccc(S(=O)(=O)O)c3)C3(C2)C(Cl)C(=O)N3c2nc3ccccc3s2)cc1` (centres undefined): the TGI in assay [1] was 53.4 µM; in assay [2], 24.1 µM; in assay [18] it was above 90.2 µM; in [3], 49.8 µM; in assay [5], 41.5 µM; in [6], 14.3 µM. Also, the TGI in assay [7] stood at 9.12 µM; in [8], 15.5 µM; in assay [9], 8.26 µM; in assay [10], 20.9 µM; in assay [11], 27.7 µM; in [12] it was 63 µM. Also, the TGI came out at 33.9 µM in assay [13], 4.01 µM in assay [14], 29.3 µM in assay [16] and 21.1 µM in [19].
Take `CC(=O)NNC=N/C(C#N)=C(\N)C#N`: the TGI in assay [1], in assay [2], in assay [18], in [3], in assay [5] and in assay [6] was above 100 µM in each case. For the same molecule, the TGI in assay [7], in assay [8], in assay [9], in assay [10], in assay [11] and in [12] was above 100 µM in each case. The TGI in assay [13], in [14], in [16] and in [19] was above 100 µM each time.
